Where two headings read alike, the source gives them in different places.

Holding throughout (test): SelectScreen Z-LYTE kinase activity assay (SI Table 6)
Holding throughout (type): biochemical

Test [1] addresses protein kinases of the Z-LYTE panel (Homo sapiens, UniProt Q9HCP0). An outline of the steps:
(§1)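 Percent effect values derive from SelectScreen Adapta, Lantha and Z-LYTE assays in which 1938 was present at 1 μM, spanning 133 protein kinases and 7 lipid kinases.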

The target of test [2] is protein kinases of the Z-LYTE panel (Homo sapiens, UniProt P08069). An outline of the steps: as §1
Chain of protein kinases of the Z-LYTE panel (Homo sapiens, UniProt P08069) (P08069 31-1367): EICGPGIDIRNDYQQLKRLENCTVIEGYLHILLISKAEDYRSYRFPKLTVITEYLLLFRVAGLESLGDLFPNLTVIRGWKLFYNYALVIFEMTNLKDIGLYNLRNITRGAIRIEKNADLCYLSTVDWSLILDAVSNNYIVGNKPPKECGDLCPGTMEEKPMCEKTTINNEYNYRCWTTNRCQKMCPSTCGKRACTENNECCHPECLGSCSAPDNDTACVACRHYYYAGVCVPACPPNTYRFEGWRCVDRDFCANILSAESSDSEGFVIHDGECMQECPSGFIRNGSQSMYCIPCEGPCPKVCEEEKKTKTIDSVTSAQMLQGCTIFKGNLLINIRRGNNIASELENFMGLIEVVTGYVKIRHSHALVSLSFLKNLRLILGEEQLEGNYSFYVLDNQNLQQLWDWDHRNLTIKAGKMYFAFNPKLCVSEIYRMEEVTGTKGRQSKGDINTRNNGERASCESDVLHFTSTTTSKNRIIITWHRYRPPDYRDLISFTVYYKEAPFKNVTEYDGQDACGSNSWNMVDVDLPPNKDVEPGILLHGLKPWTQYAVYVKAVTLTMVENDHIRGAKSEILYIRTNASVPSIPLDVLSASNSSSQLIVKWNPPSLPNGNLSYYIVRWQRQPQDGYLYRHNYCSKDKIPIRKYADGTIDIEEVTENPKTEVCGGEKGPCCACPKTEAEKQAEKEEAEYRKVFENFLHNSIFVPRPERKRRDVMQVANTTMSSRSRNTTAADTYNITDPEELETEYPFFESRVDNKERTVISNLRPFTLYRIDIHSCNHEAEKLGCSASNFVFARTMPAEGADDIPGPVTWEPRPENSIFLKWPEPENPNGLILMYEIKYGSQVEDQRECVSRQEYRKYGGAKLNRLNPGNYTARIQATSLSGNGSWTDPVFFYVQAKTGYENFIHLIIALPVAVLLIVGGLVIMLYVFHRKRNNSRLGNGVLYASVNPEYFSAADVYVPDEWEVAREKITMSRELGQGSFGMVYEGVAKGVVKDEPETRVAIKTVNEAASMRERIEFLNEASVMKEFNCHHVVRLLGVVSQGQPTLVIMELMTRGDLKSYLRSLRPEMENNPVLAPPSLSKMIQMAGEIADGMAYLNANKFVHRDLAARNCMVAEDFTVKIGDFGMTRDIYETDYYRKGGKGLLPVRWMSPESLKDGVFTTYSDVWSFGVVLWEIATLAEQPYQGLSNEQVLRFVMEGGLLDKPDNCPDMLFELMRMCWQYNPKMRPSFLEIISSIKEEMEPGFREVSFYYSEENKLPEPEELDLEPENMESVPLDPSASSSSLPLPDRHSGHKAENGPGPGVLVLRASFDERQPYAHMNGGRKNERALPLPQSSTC
Test [3] addresses protein kinases of the Z-LYTE panel (Homo sapiens, UniProt O75116). An outline of the steps:
as §1

For test [4], the target named is T1, protein kinases of the Z-LYTE panel (Homo sapiens, UniProt Q9UHD2).
T1 sequence (Q9UHD2 1-729): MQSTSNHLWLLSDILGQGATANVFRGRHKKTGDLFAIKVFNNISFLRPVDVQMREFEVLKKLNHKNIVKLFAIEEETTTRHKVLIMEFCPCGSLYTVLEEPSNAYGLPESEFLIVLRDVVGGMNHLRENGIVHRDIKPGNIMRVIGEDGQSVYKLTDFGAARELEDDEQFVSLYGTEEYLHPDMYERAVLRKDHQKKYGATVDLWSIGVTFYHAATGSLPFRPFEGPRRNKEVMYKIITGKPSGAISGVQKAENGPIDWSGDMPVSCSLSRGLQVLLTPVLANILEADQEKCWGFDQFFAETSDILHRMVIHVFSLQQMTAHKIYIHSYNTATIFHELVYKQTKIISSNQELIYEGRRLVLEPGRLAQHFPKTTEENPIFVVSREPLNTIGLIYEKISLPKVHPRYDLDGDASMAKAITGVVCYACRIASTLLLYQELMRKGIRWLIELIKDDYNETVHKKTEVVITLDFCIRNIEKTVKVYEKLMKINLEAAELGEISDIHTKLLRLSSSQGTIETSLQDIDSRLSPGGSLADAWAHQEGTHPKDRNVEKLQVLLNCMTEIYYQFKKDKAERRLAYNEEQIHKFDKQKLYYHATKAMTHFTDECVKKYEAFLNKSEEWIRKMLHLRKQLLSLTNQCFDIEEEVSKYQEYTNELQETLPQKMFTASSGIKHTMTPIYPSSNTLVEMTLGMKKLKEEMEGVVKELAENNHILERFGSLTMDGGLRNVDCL
Put shortly:
as §1

For test [5], the target named is protein kinases of the Z-LYTE panel (Homo sapiens, UniProt Q05397). Put shortly:
as §1

In test [6] the target is protein kinases of the Z-LYTE panel (Homo sapiens, UniProt P80192). An outline of the steps: as §1
Chain of protein kinases of the Z-LYTE panel (Homo sapiens, UniProt P80192) (P80192 whole entry): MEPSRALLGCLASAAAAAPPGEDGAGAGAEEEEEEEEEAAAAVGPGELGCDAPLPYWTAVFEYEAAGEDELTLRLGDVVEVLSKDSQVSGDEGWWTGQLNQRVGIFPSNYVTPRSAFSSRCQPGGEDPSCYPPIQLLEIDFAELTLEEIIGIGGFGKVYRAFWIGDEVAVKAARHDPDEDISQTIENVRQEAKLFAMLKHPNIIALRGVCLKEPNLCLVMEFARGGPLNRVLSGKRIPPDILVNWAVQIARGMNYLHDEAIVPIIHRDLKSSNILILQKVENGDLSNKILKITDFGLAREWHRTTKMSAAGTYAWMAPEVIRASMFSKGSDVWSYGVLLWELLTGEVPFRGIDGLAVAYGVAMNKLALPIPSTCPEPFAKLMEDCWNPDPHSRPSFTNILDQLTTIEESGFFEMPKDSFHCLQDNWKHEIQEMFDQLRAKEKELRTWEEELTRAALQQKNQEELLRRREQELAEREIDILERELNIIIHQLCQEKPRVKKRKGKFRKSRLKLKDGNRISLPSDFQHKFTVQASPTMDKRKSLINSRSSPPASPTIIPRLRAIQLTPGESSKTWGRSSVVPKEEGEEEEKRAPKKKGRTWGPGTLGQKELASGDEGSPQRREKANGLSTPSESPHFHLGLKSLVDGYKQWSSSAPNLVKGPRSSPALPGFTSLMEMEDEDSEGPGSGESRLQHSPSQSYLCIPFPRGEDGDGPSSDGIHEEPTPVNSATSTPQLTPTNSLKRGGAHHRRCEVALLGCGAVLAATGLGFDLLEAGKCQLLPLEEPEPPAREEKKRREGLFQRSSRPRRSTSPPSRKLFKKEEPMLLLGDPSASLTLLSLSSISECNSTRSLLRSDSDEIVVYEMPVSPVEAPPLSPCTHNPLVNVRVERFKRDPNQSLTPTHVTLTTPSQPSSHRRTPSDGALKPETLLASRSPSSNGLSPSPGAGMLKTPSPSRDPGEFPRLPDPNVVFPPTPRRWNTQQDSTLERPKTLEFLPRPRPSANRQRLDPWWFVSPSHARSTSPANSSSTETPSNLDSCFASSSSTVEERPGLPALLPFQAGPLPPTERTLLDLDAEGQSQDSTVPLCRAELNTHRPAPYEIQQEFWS
Test [7] addresses protein kinases of the Z-LYTE panel (Homo sapiens, UniProt P21802). Put shortly:
as §1

Chain of protein kinases of the Z-LYTE panel (Homo sapiens, UniProt P21802) (P21802 22-821): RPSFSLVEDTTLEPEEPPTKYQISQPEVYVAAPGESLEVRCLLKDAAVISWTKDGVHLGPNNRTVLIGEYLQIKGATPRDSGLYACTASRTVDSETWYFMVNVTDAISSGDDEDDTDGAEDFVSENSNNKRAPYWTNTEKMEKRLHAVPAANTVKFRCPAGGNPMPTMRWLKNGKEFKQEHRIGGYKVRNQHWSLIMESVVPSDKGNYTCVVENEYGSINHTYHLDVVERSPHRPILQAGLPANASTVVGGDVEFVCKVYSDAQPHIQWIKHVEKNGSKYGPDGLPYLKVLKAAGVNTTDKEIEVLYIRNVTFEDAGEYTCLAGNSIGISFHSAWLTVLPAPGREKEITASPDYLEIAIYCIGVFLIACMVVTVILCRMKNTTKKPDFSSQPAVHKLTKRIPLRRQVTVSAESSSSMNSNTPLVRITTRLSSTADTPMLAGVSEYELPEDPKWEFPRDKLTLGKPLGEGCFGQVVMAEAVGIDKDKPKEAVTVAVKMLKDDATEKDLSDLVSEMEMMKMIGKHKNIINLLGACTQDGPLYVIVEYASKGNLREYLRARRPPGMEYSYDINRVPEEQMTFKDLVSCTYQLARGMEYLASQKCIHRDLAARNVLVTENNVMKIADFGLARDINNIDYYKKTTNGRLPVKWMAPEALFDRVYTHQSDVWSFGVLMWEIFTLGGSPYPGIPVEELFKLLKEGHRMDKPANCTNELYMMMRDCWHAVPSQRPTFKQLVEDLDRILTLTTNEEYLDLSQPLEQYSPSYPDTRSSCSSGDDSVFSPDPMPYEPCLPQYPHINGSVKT
Chain of protein kinases of the Z-LYTE panel (Homo sapiens, UniProt Q9HCP0) (Q9HCP0 whole entry): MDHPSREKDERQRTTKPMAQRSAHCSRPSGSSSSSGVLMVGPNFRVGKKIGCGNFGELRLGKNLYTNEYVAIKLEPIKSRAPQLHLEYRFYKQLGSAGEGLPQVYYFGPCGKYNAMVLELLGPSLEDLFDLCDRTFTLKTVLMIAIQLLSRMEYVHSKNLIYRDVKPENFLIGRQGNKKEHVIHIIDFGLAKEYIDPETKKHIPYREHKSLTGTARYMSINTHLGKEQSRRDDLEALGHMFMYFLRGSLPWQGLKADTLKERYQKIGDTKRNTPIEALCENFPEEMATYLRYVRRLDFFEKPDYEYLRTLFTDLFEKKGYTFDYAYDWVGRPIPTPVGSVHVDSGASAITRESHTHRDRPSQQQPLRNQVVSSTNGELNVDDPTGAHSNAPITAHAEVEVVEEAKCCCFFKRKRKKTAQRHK
Chain of protein kinases of the Z-LYTE panel (Homo sapiens, UniProt Q05397) (Q05397 whole entry): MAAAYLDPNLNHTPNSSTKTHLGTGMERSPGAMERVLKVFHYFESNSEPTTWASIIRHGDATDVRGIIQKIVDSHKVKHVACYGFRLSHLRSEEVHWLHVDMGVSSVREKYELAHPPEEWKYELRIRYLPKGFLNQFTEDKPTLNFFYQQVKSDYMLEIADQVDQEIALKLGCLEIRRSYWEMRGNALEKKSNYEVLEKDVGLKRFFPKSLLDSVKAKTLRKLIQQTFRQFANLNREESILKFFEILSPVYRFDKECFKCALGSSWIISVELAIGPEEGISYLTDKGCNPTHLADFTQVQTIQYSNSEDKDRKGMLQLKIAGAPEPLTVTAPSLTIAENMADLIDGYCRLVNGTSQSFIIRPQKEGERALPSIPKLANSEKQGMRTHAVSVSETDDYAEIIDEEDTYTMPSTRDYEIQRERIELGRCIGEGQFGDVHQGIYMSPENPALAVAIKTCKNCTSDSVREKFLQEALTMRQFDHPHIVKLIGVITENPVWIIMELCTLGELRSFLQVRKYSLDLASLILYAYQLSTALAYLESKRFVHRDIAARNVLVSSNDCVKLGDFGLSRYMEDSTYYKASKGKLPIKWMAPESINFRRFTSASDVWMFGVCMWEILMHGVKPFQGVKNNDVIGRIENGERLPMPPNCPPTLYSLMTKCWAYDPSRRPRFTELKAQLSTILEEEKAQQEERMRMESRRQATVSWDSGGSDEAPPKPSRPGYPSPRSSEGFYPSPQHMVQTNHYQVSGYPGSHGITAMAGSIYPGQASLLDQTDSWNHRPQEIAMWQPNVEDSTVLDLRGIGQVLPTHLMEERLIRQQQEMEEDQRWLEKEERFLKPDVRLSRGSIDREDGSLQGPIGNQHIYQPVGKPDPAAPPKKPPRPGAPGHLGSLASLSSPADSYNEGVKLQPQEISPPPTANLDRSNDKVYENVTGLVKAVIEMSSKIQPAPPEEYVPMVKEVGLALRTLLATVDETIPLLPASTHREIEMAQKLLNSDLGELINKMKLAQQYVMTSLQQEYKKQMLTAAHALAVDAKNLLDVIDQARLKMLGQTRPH

Consider `CCN1CCN(c2ccc(Nc3cc(Nc4cccc5c4N(C(C)=O)CC5)ccn3)cc2)CC1` [Compound 1938], for which the inhibition at 1 µM was 0.622% in test [1] (read-out: % Inhibition Point 1); -0.215% in test [1] (read-out: % Inhibition Point 2); 0.204% in test [1] (read-out: % Inhibition mean); 5.5% in test [2] (read-out: % Inhibition Point 1); 5.33% in test [2] (read-out: % Inhibition Point 2); 5.41% in test [2] (read-out: % Inhibition mean). In addition, the inhibition at 1 µM in test [3] (read-out: % Inhibition Point 1) is 1.58%; in test [3] (read-out: % Inhibition Point 2) it was 0.0356%; in test [3] (read-out: % Inhibition mean), 0.807%; in test [4] (read-out: % Inhibition Point 1), 4%; in test [4] (read-out: % Inhibition Point 2), 7.54%; in test [4] (read-out: % Inhibition mean), 6%. Moreover, the inhibition at 1 µM in test [5] (read-out: % Inhibition Point 1) was determined as 47%; in test [5] (read-out: % Inhibition Point 2), 47%; in test [5] (read-out: % Inhibition mean), 47%; in test [6] (read-out: % Inhibition Point 1) it was 6.46%; in test [6] (read-out: % Inhibition Point 2), 4%; in test [6] (read-out: % Inhibition mean) it was 5%. The figures for the inhibition at 1 µM in test [7] (read-out: % Inhibition Point 1), in test [7] (read-out: % Inhibition Point 2) and in test [7] (read-out: % Inhibition mean) were 13%, 16% and 14%, respectively.
